{"source": "patent US20230295197A1", "about": "“STAT5 and STAT6 Degraders and Uses Thereof” (REGENTS OF THE UNIVERSITY OF MICHICAN, priority 2022, published 2023)", "key": {"STAT5": {"system": "STAT5", "assay": "Immunoblotting (Western blot) analysis of STAT5 degradation efficiency of degraders in treated cells", "type": "cell-based", "method_in_brief": "(§1)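 Degradation read by quantitative near-infrared Western blot: equal protein loads (20-40 μg) from compound-treated versus untreated cells, probed overnight at 4° C. for STAT5 or STAT6 with GAPDH reference. Compound concentrations and exposure times as indicated; cells grown in medium with 10% FBS at 37° C.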"}, "STAT6": {"molecular_target": "T1, STAT6 (Homo sapiens, UniProt P42226)", "T1 construct": "endogenous in cells; host or cells: MOLM-16, KU-812, SKNO1, MB231, L1236", "T1 sequence (P42226 1-847)": "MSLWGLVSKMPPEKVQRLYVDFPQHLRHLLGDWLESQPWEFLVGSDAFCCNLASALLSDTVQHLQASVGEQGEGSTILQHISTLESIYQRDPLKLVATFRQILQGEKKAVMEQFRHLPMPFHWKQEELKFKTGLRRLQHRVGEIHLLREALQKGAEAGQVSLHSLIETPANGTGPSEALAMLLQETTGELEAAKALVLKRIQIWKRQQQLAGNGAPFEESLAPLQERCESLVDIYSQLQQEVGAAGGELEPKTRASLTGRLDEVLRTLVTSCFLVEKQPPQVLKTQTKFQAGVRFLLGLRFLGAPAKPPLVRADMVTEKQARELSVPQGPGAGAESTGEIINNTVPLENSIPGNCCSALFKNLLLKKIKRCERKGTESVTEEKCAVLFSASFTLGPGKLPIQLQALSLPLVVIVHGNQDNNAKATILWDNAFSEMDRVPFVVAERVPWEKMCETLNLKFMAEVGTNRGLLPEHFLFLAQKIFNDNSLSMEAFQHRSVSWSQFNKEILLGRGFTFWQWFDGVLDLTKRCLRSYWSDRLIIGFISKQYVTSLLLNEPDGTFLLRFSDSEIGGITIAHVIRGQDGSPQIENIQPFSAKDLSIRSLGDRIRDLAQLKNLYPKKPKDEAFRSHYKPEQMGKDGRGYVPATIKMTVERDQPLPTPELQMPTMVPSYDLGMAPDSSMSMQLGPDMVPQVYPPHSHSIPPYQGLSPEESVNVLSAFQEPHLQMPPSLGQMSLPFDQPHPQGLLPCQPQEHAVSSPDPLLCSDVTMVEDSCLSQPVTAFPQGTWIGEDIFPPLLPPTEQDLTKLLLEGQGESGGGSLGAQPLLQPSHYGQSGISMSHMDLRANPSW", "assay": "Immunoblotting (Western blot) analysis of STAT6 degradation efficiency of degraders in treated cells", "type": "cell-based", "method_in_brief": "as §1"}, "[1]": {"conditions": "KU-812 cells, read-out: DC50 S5 KU-812"}, "[2]": {"conditions": "MOLM-16 cells, numeric bound, read-out: DC50 S5 MOLM-16"}, "[3]": {"conditions": "SKNO1 cells, read-out: DC50 S5 SKNO1"}, "[4]": {"conditions": "MOLM-16 cells, numeric bound, read-out: DC50 S6 MOLM-16"}, "[5]": {"conditions": "MB231 cells, read-out: DC50 S6 MB231"}, "[6]": {"conditions": "MOLM-16 cells, class symbols, read-out: DC50 S5 MOLM-16"}, "[7]": {"conditions": "MOLM-16 cells, class symbols, read-out: DC50 S6 MOLM-16"}}, "note": "Where two headings read alike, the source gives them in different places.", "data": [{"smiles": "CC(C)(C)[C@H](NC(=O)c1cc2cc(C(F)(F)P(=O)(O)O)ccc2s1)C(=O)N1CCC[C@H]1C(=O)N(CCC(=O)N1CC(CC#Cc2cccc3c2CN(C2CCC(=O)NC2=O)C3=O)C1)c1ccc(Br)cc1", "note": "(stereo partly drawn) [Compound 667, ((2-(((2S)-1-((2S)-2-((4-bromophenyl)(3-(3-(3-(2-(2,6-dioxopiperidin-3-yl)-1-oxoisoindolin-4-yl)prop-2-yn-1-yl)azetidin-1-yl)-3-oxopropyl)carbamoyl)pyrrolidin-1-yl)-3,3-dimethyl-1-oxobutan-2-yl)carbamoyl)benzo[b]thiophen-5-yl)difluoromethyl)phosphonic acid]", "values": [{"measurement": "DC50", "setting": "STAT5; [1]", "result": "> 10", "unit": "µM"}, {"measurement": "DC50", "setting": "STAT5; [2]", "result": "> 0.3", "unit": "µM"}, {"measurement": "DC50", "setting": "STAT5; [3]", "result": "> 10", "unit": "µM"}, {"measurement": "DC50", "setting": "STAT6; [4]", "result": "> 0.3", "unit": "µM"}]}, {"smiles": "CN(C(=O)[C@@H]1C[C@@H](OCC(=O)NCCCC#Cc2cccc3c2CN(C2CCC(=O)NC2=O)C3=O)CN1C(=O)[C@@H](NC(=O)c1cc2cc(C(F)(F)P(=O)(O)O)ccc2s1)C(C)(C)C)c1ccc(Br)cc1", "note": "(stereo partly drawn) [Compound 411, ((2-(((2S)-1-((2S,4R)-2-((4-bromophenyl)(methyl)carbamoyl)-4-(2-((5-(2-(2,6-dioxopiperidin-3-yl)-1-oxoisoindolin-4-yl)pent-4-yn-1-yl)amino)-2-oxoethoxy)pyrrolidin-1-yl)-3,3-dimethyl-1-oxobutan-2-yl)carbamoyl)benzo[b]thiophen-5-yl)difluoromethyl)phosphonic acid]", "values": [{"measurement": "DC50", "setting": "STAT5; [3]", "result": "> 10", "unit": "µM"}, {"measurement": "DC50", "setting": "STAT6; L1236 cells, read-out: DC50 S6 L1236", "result": "> 10", "unit": "µM"}, {"measurement": "DC50", "setting": "STAT6; [5]", "result": "> 10", "unit": "µM"}]}, {"smiles": "CN(CCCC#Cc1cccc2c1CN(C1CCC(=O)NC1=O)C2=O)C(=O)CCN(C(=O)[C@@H]1CCCN1C(=O)[C@@H](NC(=O)c1cc2cc(C(F)(F)P(=O)(O)OCOC(=O)C(C)(C)C)ccc2s1)C(C)(C)C)c1ccc(-c2nccs2)cc1", "note": "(stereo partly drawn) [Compound 679, ((((2-(((2S)-1-((2S)-2-((3-((5-(2-(2,6-dioxopiperidin-3-yl)-1-oxoisoindolin-4-yl)pent-4-yn-1-yl)(methyl)amino)-3-oxopropyl)(4-(thiazol-2-yl)phenyl)carbamoyl)pyrrolidin-1-yl)-3,3-dimethyl-1-oxobutan-2-yl)carbamoyl)benzo[b]thiophen-5-yl)difluoromethyl)(hydroxy)phosphoryl)oxy)methyl pivalate]", "values": [{"measurement": "DC50", "setting": "STAT5; [1]", "result": "0.1 to 1", "unit": "µM"}, {"measurement": "DC50", "setting": "STAT5; [6]", "result": "< 0.1", "unit": "µM"}, {"measurement": "DC50", "setting": "STAT6; [7]", "result": "> 10", "unit": "µM"}]}, {"smiles": "CC(C)(C)[C@H](NC(=O)c1cc2cc(C(F)(F)P(=O)(O)O)ccc2s1)C(=O)N1CCC[C@H]1C(=O)N1Cc2ccccc2CC1C(=O)NCCCC#Cc1cccc2c1CN(C1CCC(=O)NC1=O)C2=O", "note": "(stereo partly drawn) [Compound 657, ((2-(((2S)-1-((2S)-2-(3-((5-(2-(2,6-dioxopiperidin-3-yl)-1-oxoisoindolin-4-yl)pent-4-yn-1-yl)carbamoyl)-1,2,3,4-tetrahydroisoquinoline-2-carbonyl)pyrrolidin-1-yl)-3,3-dimethyl-1-oxobutan-2-yl)carbamoyl)benzo[b]thiophen-5-yl)difluoromethyl)phosphonic acid]", "values": [{"measurement": "DC50", "setting": "STAT5; [2]", "result": "> 0.3", "unit": "µM"}, {"measurement": "DC50", "setting": "STAT6; [4]", "result": "> 0.3", "unit": "µM"}]}, {"smiles": "Cc1ncsc1-c1ccc([C@H](CC(=O)NCCOCCOCCOCCC(=O)N[C@@H]2C[C@@H](C(=O)Nc3ncc(-c4ccccc4)s3)N(C(=O)[C@@H](NC(=O)c3cc4cc(C(F)(F)P(=O)(O)O)ccc4s3)C(C)(C)C)C2)NC(=O)[C@@H]2C[C@@H](O)CN2C(=O)[C@@H](NC(=O)C2(F)CC2)C(C)(C)C)cc1", "note": "[Compound 582, (difluoro(2-(((S)-1-((2S,4R)-4-((S)-1-((2S,4R)-1-((S)-2-(1-fluorocyclopropane-1-carboxamido)-3,3-dimethylbutanoyl)-4-hydroxypyrrolidin-2-yl)-3-(4-(4-methylthiazol-5-yl)phenyl)-1,5-dioxo-9,12,15-trioxa-2,6-diazaoctadecan-18-amido)-2-((5-phenylthiazol-2-yl)carbamoyl)pyrrolidin-1-yl)-3,3-dimethyl-1-oxobutan-2-yl)carbamoyl)benzo[b]thiophen-5-yl)methyl)phosphonic acid]", "values": [{"measurement": "DC50", "setting": "STAT5; [2]", "result": "> 0.3", "unit": "µM"}, {"measurement": "DC50", "setting": "STAT6; [4]", "result": "> 0.3", "unit": "µM"}]}, {"smiles": "CC(C)(C)[C@H](NC(=O)c1cc2cc(C(F)(F)P(=O)(O)O)ccc2s1)C(=O)N1CCC[C@H]1C(=O)N(CCC(=O)NCCCC#Cc1cccc2c1CN(C1CCC(=O)NC1=O)C2=O)c1cccc2sccc12", "note": "(stereo partly drawn) [Compound 660, ((2-(((2S)-1-((2S)-2-(benzo[b]thiophen-4-yl(3-((5-(2-(2,6-dioxopiperidin-3-yl)-1-oxoisoindolin-4-yl)pent-4-yn-1-yl)amino)-3-oxopropyl)carbamoyl)pyrrolidin-1-yl)-3,3-dimethyl-1-oxobutan-2-yl)carbamoyl)benzo[b]thiophen-5-yl)difluoromethyl)phosphonic acid]", "values": [{"measurement": "DC50", "setting": "STAT5; [2]", "result": "> 0.3", "unit": "µM"}, {"measurement": "DC50", "setting": "STAT5; [3]", "result": "1 to 10", "unit": "µM"}, {"measurement": "DC50", "setting": "STAT6; [4]", "result": "> 0.3", "unit": "µM"}]}, {"smiles": "CC(C)(C)[C@H](NC(=O)c1cc2cc(C(F)(F)P(=O)(O)O)ccc2s1)C(=O)N1C[C@H](NC(=O)CCCCCC#Cc2ccc3c(c2)CN(C2CCC(=O)NC2=O)C3=O)C[C@H]1C(=O)Nc1ncc(-c2ccccc2)s1", "note": "(stereo partly drawn) [Compound 568, ((2-(((2S)-1-((2S,4R)-4-(8-(2-(2,6-dioxopiperidin-3-yl)-1-oxoisoindolin-5-yl)oct-7-ynamido)-2-((5-phenylthiazol-2-yl)carbamoyl)pyrrolidin-1-yl)-3,3-dimethyl-1-oxobutan-2-yl)carbamoyl)benzo[b]thiophen-5-yl)difluoromethyl)phosphonic acid]", "values": [{"measurement": "DC50", "setting": "STAT5; [2]", "result": "> 0.3", "unit": "µM"}, {"measurement": "DC50", "setting": "STAT6; [4]", "result": "> 0.3", "unit": "µM"}]}, {"smiles": "CC(C)(C)[C@H](NC(=O)c1cc2cc(C(F)(F)P(=O)(O)O)ccc2s1)C(=O)N1CCC[C@H]1C(=O)N(CCC(=O)NCCCC#Cc1cccc2c1CN(C1CCC(=O)NC1=O)C2=O)c1ccc(-c2nccs2)cc1", "note": "(stereo partly drawn) [Compound 655, ((2-(((2S)-1-((2S)-2-((3-((5-(2-(2,6-dioxopiperidin-3-yl)-1-oxoisoindolin-4-yl)pent-4-yn-1-yl)amino)-3-oxopropyl)(4-(thiazol-2-yl)phenyl)carbamoyl)pyrrolidin-1-yl)-3,3-dimethyl-1-oxobutan-2-yl)carbamoyl)benzo[b]thiophen-5-yl)difluoromethyl)phosphonic acid]", "values": [{"measurement": "DC50", "setting": "STAT5; [1]", "result": "0.1 to 1", "unit": "µM"}, {"measurement": "DC50", "setting": "STAT5; [6]", "result": "< 0.1", "unit": "µM"}, {"measurement": "DC50", "setting": "STAT5; [3]", "result": "0.1 to 1", "unit": "µM"}, {"measurement": "DC50", "setting": "STAT6; [4]", "result": "> 0.3", "unit": "µM"}]}, {"smiles": "CC(C)(C)[C@H](NC(=O)c1cc2cc(C(F)(F)P(=O)(O)O)ccc2s1)C(=O)N1CCC[C@H]1C(=O)N(CCC(=O)NCCCC#Cc1cccc2c1CN(C1CCC(=O)NC1=O)C2=O)c1ccc(S(C)(=O)=O)cc1", "note": "(stereo partly drawn) [Compound 654, ((2-(((2S)-1-((2S)-2-((3-((5-(2-(2,6-dioxopiperidin-3-yl)-1-oxoisoindolin-4-yl)pent-4-yn-1-yl)amino)-3-oxopropyl)(4-(methylsulfonyl)phenyl)carbamoyl)pyrrolidin-1-yl)-3,3-dimethyl-1-oxobutan-2-yl)carbamoyl)benzo[b]thiophen-5-yl)difluoromethyl)phosphonic acid]", "values": [{"measurement": "DC50", "setting": "STAT5; [2]", "result": "> 0.3", "unit": "µM"}, {"measurement": "DC50", "setting": "STAT5; [3]", "result": "> 10", "unit": "µM"}, {"measurement": "DC50", "setting": "STAT6; [4]", "result": "> 0.3", "unit": "µM"}]}, {"smiles": "CC(C)(C)[C@H](NC(=O)c1cc2cc(C(F)(F)P(=O)(O)O)ccc2s1)C(=O)N1CCC[C@H]1C(=O)N(CCC(=O)N1CC(CCC#Cc2cccc3c2CN(C2CCC(=O)NC2=O)C3=O)C1)c1ccc(Br)cc1", "note": "(stereo partly drawn) [Compound 666, ((2-(((2S)-1-((2S)-2-((4-bromophenyl)(3-(3-(4-(2-(2,6-dioxopiperidin-3-yl)-1-oxoisoindolin-4-yl)but-3-yn-1-yl)azetidin-1-yl)-3-oxopropyl)carbamoyl)pyrrolidin-1-yl)-3,3-dimethyl-1-oxobutan-2-yl)carbamoyl)benzo[b]thiophen-5-yl)difluoromethyl)phosphonic acid]", "values": [{"measurement": "DC50", "setting": "STAT5; [1]", "result": "1 to 10", "unit": "µM"}, {"measurement": "DC50", "setting": "STAT5; [2]", "result": "> 0.3", "unit": "µM"}, {"measurement": "DC50", "setting": "STAT5; [3]", "result": "1 to 10", "unit": "µM"}, {"measurement": "DC50", "setting": "STAT6; [4]", "result": "> 0.3", "unit": "µM"}]}, {"smiles": "CC(C)(C)[C@H](NC(=O)c1cc2cc(C(F)(F)P(=O)(O)O)ccc2s1)C(=O)N1CCC[C@H]1C(=O)N(CCC(=O)NCCCCCCCCC#Cc1cccc2c1CN(C1CCC(=O)NC1=O)C2=O)c1ccc(Br)cc1", "note": "(stereo partly drawn) [Compound 403, ((2-(((2S)-1-((2S)-2-((4-bromophenyl)(3-((10-(2-(2,6-dioxopiperidin-3-yl)-1-oxoisoindolin-4-yl)dec-9-yn-1-yl)amino)-3-oxopropyl)carbamoyl)pyrrolidin-1-yl)-3,3-dimethyl-1-oxobutan-2-yl)carbamoyl)benzo[b]thiophen-5-yl)difluoromethyl)phosphonic acid]", "values": [{"measurement": "DC50", "setting": "STAT5; [1]", "result": "> 10", "unit": "µM"}, {"measurement": "DC50", "setting": "STAT5; [6]", "result": "1 to 10", "unit": "µM"}, {"measurement": "DC50", "setting": "STAT6; [5]", "result": "> 10", "unit": "µM"}, {"measurement": "DC50", "setting": "STAT6; [7]", "result": "> 10", "unit": "µM"}]}]}
